Experimental data from patent US10175256B2, “Compositions and methods utilizing lysophosphatidylcholine scaffolds” (National University Of Singapore, priority 2013, dated 2019).
Where “and” joins values, the source holds several entries; their conditions need not be identical. Identical values can stand only once.

Assays:
[1] = test system: mouse Mfsd2a; experiment: Cell-based free fatty acid transport/uptake in Mfsd2a expressing HEK293 cells (mass spectrometry, TLC; Table 1); details: MS, replicate columns; for Amount of each lipid species normalized to internal standard, mol percent in total phospholipid analysed / Amount of lipid species, mol percent in total phospholipid analysed: mock HEK293 cells
Description: (§1) FIG. 12. […] Std: free [^14C]-DHA. b. TLC analysis of phospholipids and neutral lipids of HEK293 cells transfected with mouse Mfsd2a and mutants after overnight incubation with 100 μM [^14C]-oleate. TLC protocol used was described in Methods. PC: phosphatidylcholine, PE: phosphatidylethanolamine, TAG: triglyceride, CE: cholesteryl ester.
(§2) For tissue lipid analysis, brain, liver, and heart of female WT and KO mice with age of 7-8 weeks born to HET mothers, and brains from e18.5 embryos were collected and immediately frozen with liquid nitrogen until extraction. Lipid extraction was followed by chloroform/methanol method. For cell-based free fatty acid transport, lipids from HEK293 cells expressing mouse Mfsd2a and mock controls after overnight treatment with 100 μM docosahexaenoic, arachidonic, eicosapentaenoic, alpha-linolenic, linoleic, oleic, palmitic acids in BSA complex were extracted using HIP buffer (hexane:iso-propanol 3:2, per volume) and dried under N2 gas. Phospholipid species were measured by high performance liquid chromatography (HPLC) 1100 system (Agilent) coupled with an Triple Quadrupole/Ion Trap mass spectrometer (4000Qtrap, Applied Biosystem). Levels of individual phospholipid species were analyzed as described previously and quantified using spiked internal standards that includes PC-14:0/14:0, PE-14:0/14:0, PS-14:0/14:0 (Avanti Polar Lipids, Alabaster, Ala., USA), and dioctanoyl PI (Echelon Biosciences, Inc., Salt Lake City, Utah, USA).

[2] = target: T1, mouse Mfsd2a (Mus musculus, UniProt Q9DA75); experiment: as above; details: replicate columns; for Amount of each lipid species normalized to internal standard, mol percent in total phospholipid analysed / Amount of lipid species, mol percent in total phospholipid analysed: Mfsd2a expressing HEK293 cells
T1 construct: expressed in transfected cells; host or cells: HEK293
T1 sequence (Q9DA75 1-534): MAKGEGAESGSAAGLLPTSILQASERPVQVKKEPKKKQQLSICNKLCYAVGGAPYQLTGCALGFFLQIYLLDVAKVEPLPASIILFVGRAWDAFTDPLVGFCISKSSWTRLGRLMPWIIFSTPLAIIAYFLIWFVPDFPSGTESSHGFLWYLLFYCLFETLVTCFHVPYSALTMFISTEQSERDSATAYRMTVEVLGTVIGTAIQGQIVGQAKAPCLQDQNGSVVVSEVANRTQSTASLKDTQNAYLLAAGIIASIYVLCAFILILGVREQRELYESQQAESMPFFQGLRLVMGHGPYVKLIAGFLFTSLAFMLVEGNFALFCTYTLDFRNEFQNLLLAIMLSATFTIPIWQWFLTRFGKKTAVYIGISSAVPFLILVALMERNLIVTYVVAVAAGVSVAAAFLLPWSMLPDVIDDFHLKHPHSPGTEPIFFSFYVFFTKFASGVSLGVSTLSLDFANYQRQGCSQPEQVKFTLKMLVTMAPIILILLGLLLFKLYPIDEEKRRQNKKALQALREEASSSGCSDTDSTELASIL
Description: as §1, §2

[3] = 100 uM Docosahexaenoic acid/BSA complex overnight
[4] = 100 uM Docosahexaenoic acid/BSA complex overnight, MS
[5] = mock HEK293 cells incubated with 100 uM Eicosapentaenoic fatty acid/BSA complex overnight
[6] = 100 uM Linoleic fatty acid/BSA complex overnight
[7] = 100 uM Oleic fatty acid/BSA complex overnight
[8] = Mfsd2a expressing HEK293 cells incubated with 100 uM Eicosapentaenoic fatty acid/BSA complex overnight, MS
[9] = 100 uM Alpha-linolenic fatty acid/BSA complex overnight
[10] = 100 uM Linoleic fatty acid/BSA complex overnight, MS
[11] = 100 uM Oleic fatty acid/BSA complex overnight, MS
[12] = mock HEK293 cells incubated with 100 uM Arachidonic fatty acid/BSA complex overnight
[13] = Mfsd2a expressing HEK293 cells incubated with 100 uM Arachidonic fatty acid/BSA complex overnight, MS
[14] = 100 uM Eicosapentaenoic acid/BSA complex overnight
[15] = 100 uM Eicosapentaenoic acid/BSA complex overnight, MS

Q: What does the source list for CCCCCCCCCCCCCCCC(=O)OC[C@@H](O)COP(=O)(O)O[C@@H]1[C@H](O)[C@H](O)[C@@H](O)[C@H](O)[C@H]1O [LP116:0]?
A: Amount of each lipid species normalized to internal standard, mol percent in total phospholipid analysed [1, 3]: 0.003621 mol percent and 0.004425 mol percent and 0.003813 mol percent; Amount of each lipid species normalized to internal standard, mol percent in total phospholipid analysed [2, 4]: 0.003896 mol percent and 0.00362 mol percent and 0.004663 mol percent and 0.002596 mol percent

Q: Which results are given for CCCCCCCCCCCCCCCC(=O)OC[C@@H](O)COP(=O)(O)OC1[C@H](O)[C@H](O)C(O)[C@H](O)[C@H]1O (stereo partly shown) [LPI16:0]?
A: Amount of each lipid species, mol percent in total phospholipid analysed [1, 5]: 0.004685 mol percent and 0.004731 mol percent and 0.003589 mol percent; Amount of lipid species, mol percent in total phospholipid analysed [1, 6]: 0.003029 mol percent and 0.004291 mol percent and 0.00407 mol percent; Amount of lipid species, mol percent in total phospholipid analysed [1, 7]: 0.003369 mol percent and 0.003584 mol percent and 0.002627 mol percent; Amount of each lipid species, mol percent in total phospholipid analysed [2, 8]: 0.00427 mol percent and 0.002996 mol percent and 0.00331 mol percent and 0.004891 mol percent; Amount of lipid species, mol percent in total phospholipid analysed [2, 9]: 0.002614 mol percent and 0.002235 mol percent and 0.003861 mol percent and 0.003103 mol percent; Amount of lipid species, mol percent in total phospholipid analysed [2, 10]: 0.002421 mol percent and 0.002583 mol percent and 0.004097 mol percent and 0.003665 mol percent; Amount of lipid species, mol percent in total phospholipid analysed [2, 11]: 0.003305 mol percent and 0.002531 mol percent and 0.002415 mol percent and 0.003238 mol percent

Q: Which “Amount of each lipid species, mol percent in total phospholipid analysed” value [1, 12] does the source give for CCCCCCCCCCCCCCCCCC(=O)OC[C@@H](O)COP(=O)(O)O[C@@H]1[C@H](O)[C@H](O)[C@@H](O)[C@H](O)[C@H]1O [LPI18:0] here?
A: The value was 0.03307 mol percent and 0.03421 mol percent and 0.02228 mol percent.

Q: And the “Amount of each lipid species, mol percent in total phospholipid analysed” value [1, 5]?
A: Its value is 0.03631 mol percent and 0.04031 mol percent and 0.03846 mol percent.

Q: What about the “Amount of each lipid species normalized to internal standard, mol percent in total phospholipid analysed” value [1, 3] of the same compound?
A: The value was 0.0354 mol percent and 0.03721 mol percent and 0.03756 mol percent.

Q: And the “Amount of lipid species, mol percent in total phospholipid analysed” value (“Amount of lipid species, mol percent” for short) [1, 6]?
A: Its value is 0.03365 mol percent and 0.03811 mol percent and 0.02692 mol percent.

Q: What about the “Amount of lipid species, mol percent” value [1, 7] of the same compound?
A: Its value is 0.02649 mol percent and 0.03117 mol percent and 0.0307 mol percent.

Q: And the “Amount of each lipid species, mol percent in total phospholipid analysed” value [2, 13]?
A: Its value is 0.02508 mol percent and 0.03053 mol percent and 0.02667 mol percent and 0.03031 mol percent.

Q: And the “Amount of each lipid species, mol percent in total phospholipid analysed” value [2, 8]?
A: The value was 0.02916 mol percent and 0.03081 mol percent and 0.03115 mol percent and 0.03571 mol percent.

Q: What about the “Amount of lipid species, mol percent” value [2, 9] of the same compound?
A: Its value is 0.03202 mol percent and 0.03143 mol percent and 0.03738 mol percent and 0.03614 mol percent.

Q: What about the “Amount of each lipid species normalized to internal standard, mol percent in total phospholipid analysed” value [2, 4] of the same compound?
A: Its value is 0.03395 mol percent and 0.02821 mol percent and 0.03136 mol percent and 0.02514 mol percent.

Q: And the “Amount of lipid species, mol percent” value [2, 10]?
A: Its value is 0.03216 mol percent and 0.02682 mol percent and 0.02809 mol percent and 0.04343 mol percent.

Q: What about the “Amount of lipid species, mol percent” value [2, 11] of the same compound?
A: The value was 0.02837 mol percent and 0.02931 mol percent and 0.02721 mol percent and 0.02894 mol percent.

Q: CCCCCCCCCCCCCCCC(=O)OC[C@@H](O)COP(=O)(O)OC1[C@H](O)[C@H](O)C(O)[C@H](O)[C@H]1O (stereo partly shown) [LPI 16:0] was tested. Which “Amount of each lipid species, mol percent in total phospholipid analysed” value [1, 12] did it give?
A: Its value is 0.003611 mol percent and 0.003895 mol percent and 0.00338 mol percent.

Q: And the “Amount of each lipid species, mol percent in total phospholipid analysed” value [2, 13]?
A: The value was 0.003583 mol percent and 0.003359 mol percent and 0.003156 mol percent and 0.002319 mol percent.

Q: CCCCCCCCCCCCCC/C=C\OC[C@@H](O)COP(=O)(O)OCCN [Lyso PE16:0p] was tested. Which “Amount of each lipid species normalized to internal standard, mol percent in total phospholipid analysed” value [1, 3] did it give?
A: The value was 2.843 mol percent and 2.772 mol percent and 2.42 mol percent.

Q: And the “Amount of each lipid species normalized to internal standard, mol percent in total phospholipid analysed” value [1, 14]?
A: The value was 3.984 mol percent and 3.09 mol percent and 2.343 mol percent.

Q: What about the “Amount of lipid species, mol percent” value [1, 7] of the same compound?
A: The value was 3.062 mol percent and 2.456 mol percent and 2.052 mol percent.

Q: And the “Amount of lipid species, mol percent” value [2, 9]?
A: Its value is 3.296 mol percent and 3.844 mol percent and 2.809 mol percent and 2.876 mol percent.

Q: And the “Amount of lipid species, mol percent” value [2, 6]?
A: Its value is 1.997 mol percent and 3.121 mol percent and 2.462 mol percent and 2.098 mol percent.

Q: What about the “Amount of each lipid species normalized to internal standard, mol percent in total phospholipid analysed” value [2, 4] of the same compound?
A: Its value is 3.182 mol percent and 3.1158 mol percent and 3.231 mol percent and 3.697 mol percent.

Q: What about the “Amount of each lipid species normalized to internal standard, mol percent in total phospholipid analysed” value [2, 15] of the same compound?
A: The value was 2.495 mol percent and 3.134 mol percent and 3.766 mol percent and 2.379 mol percent.

Q: And the “Amount of lipid species, mol percent” value [2, 11]?
A: The value was 2.254 mol percent and 2.591 mol percent and 2.664 mol percent and 2.476 mol percent.

Q: What does the source list for CCCCCCCCCCCCCCCC/C=C\OC[C@@H](O)COP(=O)(O)OCCN [Lyso PE18:0p]?
A: Amount of each lipid species normalized to internal standard, mol percent in total phospholipid analysed [1, 3]: 0.3791 mol percent and 0.5478 mol percent and 0.5875 mol percent; Amount of each lipid species normalized to internal standard, mol percent in total phospholipid analysed [1, 14]: 0.7711 mol percent and 0.3952 mol percent and 0.4625 mol percent; Amount of lipid species, mol percent in total phospholipid analysed [1, 7]: 0.336 mol percent and 0.5628 mol percent and 0.5097 mol percent; Amount of lipid species, mol percent in total phospholipid analysed [2, 9]: 0.5329 mol percent and 0.4653 mol percent and 0.37 mol percent and 0.5715 mol percent; Amount of lipid species, mol percent in total phospholipid analysed [2, 6]: 0.3438 mol percent and 0.3054 mol percent and 0.2525 mol percent and 0.1986 mol percent; Amount of each lipid species normalized to internal standard, mol percent in total phospholipid analysed [2, 4]: 0.3998 mol percent and 0.8078 mol percent and 0.4971 mol percent and 0.5526 mol percent; Amount of each lipid species normalized to internal standard, mol percent in total phospholipid analysed [2, 15]: 0.4834 mol percent and 0.7431 mol percent and 0.4828 mol percent and 0.4728 mol percent; Amount of lipid species, mol percent in total phospholipid analysed [2, 11]: 0.4754 mol percent and 0.4091 mol percent and 0.4604 mol percent and 0.341 mol percent

Q: For CCCCCCCCCCCCCCCCCC/C=C\OC[C@@H](O)COP(=O)(O)OCCN [Lyso PE20:0p], which “Amount of each lipid species normalized to internal standard, mol percent in total phospholipid analysed” value [1, 3] is on record?
A: The value was 0.1737 mol percent and 0.2656 mol percent and 0.1958 mol percent.

Q: And the “Amount of each lipid species normalized to internal standard, mol percent in total phospholipid analysed” value [1, 14]?
A: The value was 0.4498 mol percent and 0.1976 mol percent and 0.1696 mol percent.

Q: What about the “Amount of lipid species, mol percent” value [1, 7] of the same compound?
A: The value was 0.1867 mol percent and 0.2217 mol percent and 0.228 mol percent.

Q: And the “Amount of lipid species, mol percent” value [2, 9]?
A: The value was 0.4144 mol percent and 0.2832 mol percent and 0.3195 mol percent and 0.1905 mol percent.

Q: What about the “Amount of lipid species, mol percent” value [2, 6] of the same compound?
A: The value was 0.1851 mol percent and 0.2714 mol percent and 0.2999 mol percent and 0.1862 mol percent.

Q: What about the “Amount of each lipid species normalized to internal standard, mol percent in total phospholipid analysed” value [2, 4] of the same compound?
A: Its value is 0.1999 mol percent and 0.2885 mol percent and 0.2131 mol percent and 0.1906 mol percent.

Q: What about the “Amount of each lipid species normalized to internal standard, mol percent in total phospholipid analysed” value [2, 15] of the same compound?
A: Its value is 0.1715 mol percent and 0.2585 mol percent and 0.309 mol percent and 0.2898 mol percent.

Q: What about the “Amount of lipid species, mol percent” value [2, 11] of the same compound?
A: Its value is 0.184 mol percent and 0.3068 mol percent and 0.1973 mol percent and 0.2871 mol percent.
